Data published in US10072008B2, “Spiro-isoquinoline-3,4′-piperidine compounds having activity against pain” (LABORATORIOS DEL DR. ESTEVE S.A., priority 2015, dated 2018).
pKi: −log10 of the molar value.

Molecular target: human σ1 receptor (Homo sapiens (Human), UniProt Q99720)
Experiment: Human σ1 receptor radioligand assay ([3H](+)-pentazocine, transfected HEK-293 membranes)
Settings: binding to the σ1 receptor expressed as Ki, [3H](+)-pentazocine 5 nM
Description: Human σ1 Receptor Radioligand Assay
To investigate binding properties of test compounds to human σ1 receptor, transfected HEK-293 membranes and [^3H](+)-pentazocine (Perkin Elmer, NET-1056), as the radioligand, were used. The assay was carried out with 7 μg of membrane suspension, 5 nM of [^3H](+)-pentazocine in either absence or presence of either buffer or 10 μM Haloperidol for total and non-specific binding, respectively. Binding buffer contained Tris-HCl 50 mM at pH 8. Plates were incubated at 37° C. for 120 minutes. After the incubation period, the reaction mix was then transferred to MultiScreen HTS, FC plates (Millipore), filtered and plates were washed 3 times with ice-cold 10 mM Tris-HCL (pH 7.4). Filters were dried and counted at approximately 40% efficiency in a MicroBeta scintillation counter (Perkin-Elmer) using EcoScint liquid scintillation cocktail

human σ1 receptor, sequence (Q99720 whole entry): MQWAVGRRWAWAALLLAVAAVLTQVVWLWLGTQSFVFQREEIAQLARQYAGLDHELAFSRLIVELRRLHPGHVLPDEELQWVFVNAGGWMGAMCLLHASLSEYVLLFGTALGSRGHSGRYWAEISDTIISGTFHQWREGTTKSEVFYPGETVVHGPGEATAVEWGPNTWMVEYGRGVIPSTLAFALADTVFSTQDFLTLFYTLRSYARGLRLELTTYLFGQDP

Row | SMILES | pKi
1 | O=C1NC2(CCN(Cc3ccccc3)CC2)Cc2ccccc21 [Example 2, 1′-benzyl-2,4-dihydro-1H-spiro[isoquinoline-3,4′-piperidin]-1-one] | > 7.00
2 | c1ccc(CN2CCC3(CC2)Cc2ccccc2CN3)cc1 [Example 4, 1′-benzyl-2,4-dihydro-1H-spiro[isoquinoline-3,4′-piperidine]] | > 7.00
3 | CN1Cc2ccccc2CC12CCN(Cc1ccccc1)CC2 [Example 6, 1′-Benzyl-2-methyl-2,4-dihydro-1H-spiro[isoquinoline-3,4′-piperidine]] | > 7.00
4 | O=C1NC2(CCN(CCc3ccccc3)CC2)Cc2ccccc21 [Example 1, 1′-(2-Phenylethyl)-2,4-dihydro-1H-spiro[isoquinoline-3,4′-piperidin]-1-one] | > 7.00
5 | CN1Cc2ccccc2CC12CCN(CCN1CCOCC1)CC2 [Example 7, 4-(2-(2-Methyl-2,4-dihydro-1H-spiro[isoquinoline-3,4′-piperidine]-1′-yl)ethyl)morpholine] | > 6.30
